Measured values reported in article PMC7288171, “Synergistic Effects of Thiosemicarbazides with Clinical Drugs against S. aureus” (Molecules, 2020).
In brackets after ≈: the same amount, converted by molar mass. Read-outs that look alike come from different tables or passages of the source.

Columns and labels:
B. cereus ATCC 10876 = experiment: MIC, broth microdilution; format: cell-based; conditions: Bacillus cereus, ATCC10876; B. c. ATCC 10876; compounds 6–9 and antibiotics; read-out: MIC
Method: (§1) The antibacterial activity of the thiosemicarbazides 1–9 and antibiotics (amoxicillin, gentamicin, levofloxacin, linezolid, and vancomycin) was tested on the Gram-positive strains (Microbiologics, St. Cloud, MN, USA) (S. aureus ATCC 25923, S. aureus ATCC 6538, S. epidermidis ATCC 12228, B. subtilis ATCC 6633, B. cereus ATCC 10876, M. luteus ATCC 10240), the Gram-negative strains (Microbiologics, St. Cloud, MN, USA) (E. coli ATCC 25922, K. pneumoniae ATCC 13883, P. mirabilis ATCC 12453, P. aeruginosa ATCC 9027), and clinical isolates of S. aureus (Medical University of Lublin, Lublin, Poland) (MSSA-1, MSSA-2, MSSA-3, MSSA-4, MRSA-1).

B. subtilis ATCC 6633 = experiment: MIC, broth microdilution; format: cell-based; conditions: Bacillus subtilis, ATCC6633; B. s. ATCC 6633; compounds 6–9 and antibiotics; read-out: MIC
Method: as §1

M. luteus ATCC 10240 = experiment: MIC, broth microdilution; format: cell-based; conditions: Micrococcus luteus, ATCC10240; M. l. ATCC 10240; compounds 6–9 and antibiotics; read-out: MIC
Method: as §1

S. aureus ATCC 25923 [1] = experiment: MIC, broth microdilution; format: cell-based; conditions: S. a. ATCC 25923, compounds 6–9 and antibiotics
Method: as §1

S. aureus ATCC 6538 = experiment: MIC, broth microdilution; format: cell-based; conditions: Staphylococcus aureus, ATCC6538; S. a. ATCC 6538; compounds 6–9 and antibiotics; read-out: MIC
Method: as §1

[2] = test system: S. epidermidis ATCC 12228; experiment: MIC, broth microdilution; format: cell-based; conditions: Staphylococcus epidermidis, ATCC12228; S. e. ATCC 12228; compounds 6–9 and antibiotics; read-out: MIC
Method: as §1

MRSA-1 = experiment: MIC, clinical isolate of S. aureus; format: cell-based; conditions: Staphylococcus aureus; clinical isolate MRSA-1; read-out: MIC
Method: as §1

MSSA-1 = experiment: MIC, clinical isolate of S. aureus; format: cell-based; conditions: Staphylococcus aureus; clinical isolate MSSA-1; read-out: MIC
Method: as §1

MSSA-2 = experiment: MIC, clinical isolate of S. aureus; format: cell-based; conditions: Staphylococcus aureus; clinical isolate MSSA-2; read-out: MIC
Method: as §1

MSSA-3 = experiment: MIC, clinical isolate of S. aureus; format: cell-based; conditions: Staphylococcus aureus; clinical isolate MSSA-3; read-out: MIC
Method: as §1

MSSA-4 = experiment: MIC, clinical isolate of S. aureus; format: cell-based; conditions: Staphylococcus aureus; clinical isolate MSSA-4; read-out: MIC
Method: as §1

MTT cytotoxicity assay = format: cell-based, human; conditions: human, Hs27 foreskin fibroblast cells (ATCC CRL-1634), 25 µg/mL, 24 h, vehicle control = 100%
Method: (§2) A critical factor in research and development of new antibacterial agents is their abilities to selectively target bacterial cells without toxicity to mammalian cells. Thus, in order to test if antibacterial activity of title thiosemicarbazides is not due to their general toxicity, their effect on mammalian cell viability was assessed using human foreskin fibroblast Hs27 cells (CRL-1634) via MTT assay.
(§3) Cytotoxic properties of the compounds were evaluated using human foreskin fibroblast cells Hs27 (ATCC CRL-1634) (ATCC, Manassas, VA, USA) that were cultured in DMEM-high glucose (Sigma Aldrich, St. Louis, MO, USA). Medium was supplemented with 10% fetal bovine serum (FBS, Sigma Aldrich), 100 U/mL of penicillin, and […] of streptomycin (PenStrep, Sigma Aldrich, St. Louis, MO, USA). Cells were incubated at 37 °C in a humidified atmosphere of 5% CO2. Stock solutions of the tested compounds were prepared dissolving in a sterile dimethyl sulfoxide (DMSO) to the concentration of 50 mg/mL. The cells were seeded into 96-well sterile plates (Nunc) at a cell density of 1 × 10^5 cells/mL. After 24 h of incubation, the medium was removed from each well, and then cells were incubated for the next 24 h with tested compounds (in a fixed dose of 25 µg/mL) in DMEM-high glucose containing 2% FBS. Control cells were cultured only with medium containing 2% addition of FBS. Cytotoxicity of the compounds was evaluated using MTT assay, which is based on the conversion of 3-(4,5-dimethylthiazol-2-yl)-2,5- diphenyltetrazolium bromide (MTT) into dark-blue formazan crystals. Briefly, after 24-h incubation of cells with varying concentrations of the tested compounds, culture medium was removed from the plates. Cells were washed with PBS, and then 100 µL of medium containing 10% MTT solution (5 mg/mL) was added to each well. Cells were incubated for the next 3 h at 37 °C in an atmosphere of 5% CO2. Next, 100 µL (per well) of 10% sodium dodecyl sulfate (SDS) buffer solution was added to dissolve formazan crystals and after an overnight incubation the absorbance was measured at 570 nm using a microplate reader (Epoch, BioTek Instruments, Inc., Winooski, VT, USA).

[3] = test system: human foreskin fibroblast Hs27 cells (CRL-1634); experiment: MTT cytotoxicity assay; format: cell-based; conditions: Homo sapiens, 24 h of treatment
Method: as §2, §3

S. aureus ATCC 25923 [4] = experiment: Checkerboard broth dilution synergy assay; format: cell-based
Method: The microdilution checkerboard method was used to evaluate the synergistic effects between the thiosemicarbazides 1–9 and antibiotics, which were determined as the fractional inhibitory concentration indices (FICIs). For these experiments, amoxicillin, gentamicin, levofloxacin, linezolid, and vancomycin were selected to represent the five antimicrobial classes most commonly used in clinical practice. In this way, a total of 45 combinations of thiosemicarbazide-amoxicillin, thiosemicarbazide-gentamicin, thiosemicarbazide-levofloxacin, thiosemicarbazide-linezolid, and thiosemicarbazide-vancomycin against S. aureus ATCC 25923 were tested to identify in vitro synergy effects.
Interaction of the thiosemicarbazides 1–9 in combination with amoxicillin, gentamicin, levofloxacin, linezolid or vancomycin against S. aureus ATCC 25923 were analyzed using the checkerboard broth dilution method to determine the fractional inhibitory concentration indices (FICIs), calculated as: FIC = MIC of drug A in combination/MIC of drug A alone + MIC of drug B in combination/MIC of drug B alone. The calculated FICIs were interpreted as synergistic (FIC ≤ 0.5), additive (0.5 < FIC < 1), indifferent (1 ≤ FIC < 4.0), or antagonistic (FIC ≥ 4.0). The checkerboard assay included ciprofloxacin-carvedilol combination as positive control, whereas cefuroxime in combination with 4-(4-bromophenyl)-1-(3-fluorobezoyl)thiosemicarbazide served as negative control. The Z-factor value for the bioassay was 0.683.

[5] = biological target: T1, S. aureus topoisomerase IV (Staphylococcus aureus, UniProt P0C1S7+P0C1U9); experiment: Topoisomerase IV decatenation assay; format: biochemical; conditions: in words; 50 and 100 µM tested (Figures S1–S3)
T1 construct: purchased Inspiralis, Norwich, UK
Method: Inhibition of decatenation activity of S. aureus topoisomerase IV: The assay was performed using S. aureus topoisomerase IV decatenation kits (Inspiralis, Norwich, UK). Interlinked kDNA substrate (0.5 µg) was incubated with 1 unit of topoisomerase IV (Inspiralis, Norwich, UK), in the dedicated decatenation assay buffer supplied by the manufacturer, in the presence of varying concentrations of the test compounds. Reactions were carried out at 37 °C for 1 h and then terminated by the addition of equal volume of 2 × STOP Buffer and chloroform/iso-amyl alcohol. Samples were vortexed, centrifuged, and run through a 15 cm 1% agarose gel in TAE buffer for 1.5 h at 80 V. Gels were stained with ethidium bromide and visualized under UV light.

S. aureus DNA gyrase = biological target: T2, S. aureus DNA gyrase (Staphylococcus aureus, UniProt P0A0K8+P20831); experiment: Gyrase supercoiling assay; format: biochemical; conditions: read-out: S. aureus Gyrase DNA Inhibition (%) ± SD
T2 construct: purchased Inspiralis, Norwich, UK
Method: Supercoiling assay: The assays were performed using S. aureus Gyrase Supercoiling Assay Kits (Inspiralis, Norwich, UK). Briefly, […] pBR322 plasmid DNA (0.5 µg) was incubated with 1 unit of gyrase, in the dedicated supercoiling assay buffer supplied by the manufacturer, in the presence of varying concentrations of the test compounds. Reactions were carried out at 37 °C for 1 h and then terminated by the addition of equal volume of 2 × STOP Buffer (40% sucrose, 100 mM Tris-Cl pH 7.5, 1 mM EDTA, and 0.5 mg/mL bromophenol blue) and chloroform/iso-amyl alcohol. Samples were vortexed, centrifuged, and run through a 15 cm 1% agarose gel in TAE buffer (40 mM Tris-acetate, 2 mM EDTA) for 3 h at 50 V. Gels were stained with ethidium bromide and visualized under UV light.

[6] = Staphylococcus aureus, ATCC25923, read-out: MIC

Row | MIC (B. cereus ATCC 10876) | MIC (B. subtilis ATCC 6633) | MIC (M. luteus ATCC 10240) | MIC (S. aureus ATCC 25923 [1]; [6]) | MIC (S. aureus ATCC 6538) | MIC [2] | MIC (MRSA-1) | MIC (MSSA-1) | MIC (MSSA-2) | MIC (MSSA-3) | MIC (MSSA-4) | inhibitory action against topoisomerase IV [5] | melting point | Structure (SMILES) | viability at 24 h, 25 µg/mL (MTT cytotoxicity assay) | IC50 [3] | interaction in combination (S. aureus ATCC 25923 [4]; combination with amoxicillin) | interaction in combination (S. aureus ATCC 25923 [4]; combination with gentamicin) | interaction in combination (S. aureus ATCC 25923 [4]; combination with levofloxacin) | interaction in combination (S. aureus ATCC 25923 [4]; combination with linezolid) | interaction in combination (S. aureus ATCC 25923 [4]; combination with vancomycin) | other results
1 | 7.82 µg/mL (≈ 21.9 µM) | 7.82 µg/mL (≈ 21.9 µM) | 7.82 µg/mL (≈ 21.9 µM) | 15.6 µg/mL (≈ 43.7 µM) | 15.6 µg/mL (≈ 43.7 µM) | 7.82 µg/mL (≈ 21.9 µM) | > 500 µg/mL | 62.5 µg/mL (≈ 175 µM) | > 500 µg/mL | > 500 µg/mL | > 500 µg/mL | no inhibitory effects | 176 to 178 °C | O=C(NNC(=S)Nc1cccc(C(F)(F)F)c1)c1ccccc1F [compound 8, 1-(2-fluorobenzoyl)-4-(3-trifluoromethylphenyl)thiosemicarbazide] | 65.2% | > 25 µg/mL | indifferently | indifferently | additively | additively | indifferently | 
2 | 15.6 µg/mL (≈ 42.4 µM) | 15.6 µg/mL (≈ 42.4 µM) | 7.82 µg/mL (≈ 21.2 µM) | 62.5 µg/mL (≈ 170 µM) | 62.5 µg/mL (≈ 170 µM) | 31.2 µg/mL (≈ 84.9 µM) | 125 µg/mL (≈ 339 µM) | 62.5 µg/mL (≈ 170 µM) | > 500 µg/mL | > 500 µg/mL | 125 µg/mL (≈ 339 µM) | no inhibitory effects | 166 to 168 °C | O=C(NNC(=S)Nc1cccc(Br)c1)c1ccccc1F [compound 9, 4-(3-bromophenyl)-1-(2-fluorobenzoyl)thiosemicarbazide] | 63.1% | > 25 µg/mL | indifferently | indifferently | additively | additively | indifferently | MIC (S. aureus ATCC 25923 [1]): 62.50 µg/mL (≈ 170 µM)

Row | Structure (SMILES) | MIC (B. cereus ATCC 10876) | MIC (B. subtilis ATCC 6633) | MIC (M. luteus ATCC 10240) | MIC (S. aureus ATCC 25923 [1]; [6]) | MIC (S. aureus ATCC 6538) | MIC [2] | MIC (MRSA-1) | MIC (MSSA-1) | MIC (MSSA-2) | MIC (MSSA-3) | MIC (MSSA-4) | inhibitory action against topoisomerase IV [5] | melting point | viability at 24 h, 25 µg/mL (MTT cytotoxicity assay) | IC50 [3] | interaction in combination (S. aureus ATCC 25923 [4]; combination with amoxicillin) | interaction in combination (S. aureus ATCC 25923 [4]; combination with gentamicin) | interaction in combination (S. aureus ATCC 25923 [4]; combination with levofloxacin) | interaction in combination (S. aureus ATCC 25923 [4]; combination with linezolid) | interaction in combination (S. aureus ATCC 25923 [4]; combination with vancomycin) | other results
3 | O=C(NNC(=S)Nc1cccc(Cl)c1)c1ccccc1F [compound 7, 4-(3-chlorophenyl)-1-(2-fluorobenzoyl)thiosemicarbazide] | 31.2 µg/mL (≈ 96.5 µM) | 15.6 µg/mL (≈ 48.3 µM) | 7.82 µg/mL (≈ 24.2 µM) | 62.5 µg/mL (≈ 193 µM) | 31.2 µg/mL (≈ 96.5 µM) | 31.2 µg/mL (≈ 96.5 µM) | 500 µg/mL (≈ 1540 µM) | 125 µg/mL (≈ 386 µM) | > 500 µg/mL | 125 µg/mL (≈ 386 µM) | 125 µg/mL (≈ 386 µM) |  | 158 to 160 °C | 93.2% | > 25 µg/mL | additively | no interactions | synergistically | no interactions | antagonistic | MIC (S. aureus ATCC 25923 [1]): 62.50 µg/mL (≈ 193 µM); inhibition at 50 µM (S. aureus DNA gyrase; 50 µM): 23.8 ± 5.02%; inhibition at 100 µM (S. aureus DNA gyrase; 100 µM): 33.1 ± 1.04%
